Reference: US20120288443A1, “LABELLED PYRROLYL-OXADIAZOLYL-DIAZABICYCLONONANE DERIVATIVES AND THEIR USE IN DIAGNOSTIC METHODS” (N[…]/S, priority 2009, published 2012)

What was measured:
[1] = molecular target: T1, nicotinic α7 acetylcholine receptor (Sus scrofa, UniProt F1SNR6); test: Distribution volumes (VT) of Compound 1 in pig brain by PET, baseline vs pre-treatment; format: in vivo; set-up: nicotinic α7 acetylcholine receptor in the pig brain; from tissue; host or cells: brain of living pigs (in vivo PET); conditions: for change of distribution volume (VT) of Compound 1 tracer following pre-treatment: pig brain, Logan plot kinetic modelling, pre-treatment 10 mg/kg Compound 1 or 1 or 10 mg/kg SSR180711 i.v.
Procedure: The distribution volumes are determined in the pig brain at baseline, or following pre-treatment with either Compound 1 or SSR180711.
Five pigs were PET scanned at baseline with Compound 1 in the HRRT scanner. Subsequently, the pigs were administered either 10 mg/kg Compound 1 or SSR180711 (1 mg/kg or 10 mg/kg, i.v.), and 30 minutes or 4 hours later, the pigs were scanned a second time using the same PET protocol.
VT is a measure of concentrations of Compound 1 in a given region relative to the plasma concentration. VT was calculated by kinetic modelling using Logan plot linearization. All kinetic modelling was done in PMOD version 3.0 (PMOD technologies, Inc.).

[2] = molecular target: T1, nicotinic α7 acetylcholine receptor; test: Receptor occupancy by PET (occupancy plotting of logan plot VT) after pre-treatment with cold ligand; format: in vivo, Danish Landrace pigs; set-up: nicotinic α7 acetylcholine receptor in the pig brain; from tissue; host or cells: brain of living Danish Landrace pigs (in vivo PET); conditions: for occupancy of nicotinic α7 acetylcholine receptors: pre-treatment 10 mg/kg iv Compound 1 (cold ligand)
Procedure: (§1) Compound 1 was given as an intravenous bolus injection to a total of five Danish Landrace pigs, and the pigs were subsequently scanned for 90 minutes in a high resolution research tomography (HRRT) PET scanner. Hereafter, the pigs were re-scanned after pre-treatment with cold ligand, either Compound 1 (10 mg/kg, iv) or SSR180711 (1 mg/kg or 10 mg/kg, iv).

[3] = PET scan of brain uptake and distribution after i.v. bolus injection; format: in vivo, Danish Landrace pigs; conditions: pig, 90 minutes HRRT PET scan
Procedure: Five Danish Landrace pigs were PET scanned in a high-resolution research tomography (HRRT) scanner after i.v. bolus injection of Compound 1 at t=0 mins. Points and connecting line indicate regional radioactive concentration normalized to injected dose per kg body weight, i.e. standardized uptake values (SUV).
as §1
Pre-treatment with Compound 1 and SSR180711 lead to a decline in the distribution volumes (VT) of Compound 1 as determined with logan plot kinetic modelling.

T1 sequence (F1SNR6 20-499): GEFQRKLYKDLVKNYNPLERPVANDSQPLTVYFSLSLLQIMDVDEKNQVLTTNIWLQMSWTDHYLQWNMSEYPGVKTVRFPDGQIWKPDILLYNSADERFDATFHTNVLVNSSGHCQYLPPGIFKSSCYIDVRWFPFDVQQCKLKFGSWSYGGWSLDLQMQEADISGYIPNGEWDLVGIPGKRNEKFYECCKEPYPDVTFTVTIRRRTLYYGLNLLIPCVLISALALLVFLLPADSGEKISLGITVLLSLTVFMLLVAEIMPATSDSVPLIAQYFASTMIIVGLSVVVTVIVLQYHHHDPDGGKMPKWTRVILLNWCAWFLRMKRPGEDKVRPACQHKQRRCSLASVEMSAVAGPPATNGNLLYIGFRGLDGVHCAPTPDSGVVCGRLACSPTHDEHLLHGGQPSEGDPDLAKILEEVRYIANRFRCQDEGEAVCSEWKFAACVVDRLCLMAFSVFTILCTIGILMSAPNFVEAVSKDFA

receptor occupancy at 1 mg/kg ([2]; pig, iv, pre-treatment 1 mg/kg iv SSR180711, tracer Compound 1, read-out: occupancy of nicotinic α7 acetylcholine receptor in the pig brain) [%] | receptor occupancy at 10 mg/kg ([2]; pig, iv, pre-treatment 10 mg/kg iv SSR180711, tracer Compound 1, two values 'respectively', read-out: occupancy of nicotinic α7 acetylcholine receptor in the pig brain) [%] | occupancy of nicotinic α7 acetylcholine receptor in the pig brain ([2]; pre-treatment 10 mg/kg iv SSR180711, tracer Compound 1, two values 'respectively') [%] | Compound | change of distribution volume (VT) of Compound 1 tracer following pre-treatment [1] | brain entry and regional distribution [3] | binding to nicotinic α7 acetylcholine receptor in the pig brain ([1]; concluded from VT decrease after pre-treatment) | occupancy of nicotinic α7 acetylcholine receptors ([2]; inter-scan interval 4 hours) [%] | occupancy of nicotinic α7 acetylcholine receptors ([2]; second scan 30 minutes after pre-treatment) [%]
52 | 70 | 59 | O=C(Oc1ccc(Br)cc1)N1CCN2CCC1CC2 [SSR180711, 1,4-Diazabicyclo[3.2.2]nonane-4-carboxylic acid, 4-bromophenyl ester] | decreased |  |  |  | 
 |  |  | 2-(1,4-Diazabicyclo[3.2.2]nonan-4-yl)-5-(1-[^11C]methylpyrrol-2-yl)-1,3,4-oxadiazole [Compound 1] | decreased | entered into the pig brain, and the distribution was mainly found in the cerebral cortex and the thalamus | binds specifically and selectively | 43 | 81
